“And” between values parts separate entries of the source, which are not always exact repeats. Identical values can stand only once.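 The compound was tested at five concentrations on cells cultured in 96-well plates, with a 48-hour exposure period. Abbreviation: GI50, concentration required for 50% inhibition of growth. TGI denotes the concentration required for complete inhibition of growth.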
Tested on: MDA-MB-468 breast
Test: inhibition of tumour cell growth, NCI panel, 48 h

Compound | GI50 | TGI
Cc1ccc(S(=O)(=O)Nc2nc3ccccc3nc2Nc2ccc3nsnc3c2)cc1 | 3060 nM and 2660 nM | 13500 nM and 9260 nM
O=Cc1ccc(O)c2ncccc12 | 4140 nM | > 100000 nM
C=C1C(=O)O[C@H]2[C@H]1CC/C(CNS(=O)(=O)c1cccc3ccccc13)=C\CC[C@@]1(C)O[C@@H]21 | 1090 nM | 3150 nM
Cc1nn(-c2nc3ccccc3[nH]2)c2c1C(c1ccc3c(c1)OCO3)CC(=O)N2 (stereo not drawn) | 2320 nM | 6760 nM
CN1CCn2c(c(Sc3ccc(C(=O)NO)cc3)c3ccccc32)C1=O | 1430 nM | 3250 nM
N#CC1=C(N)Oc2c(sc3c(F)cccc23)C1c1ccc(F)cc1 (stereo not drawn) | 452 nM | 15400 nM
N=C(N)c1ccc(-c2ccc(-c3cccs3)s2)nc1 | 73.2 nM | 779 nM
O=C1/C(=C/c2ccc(Cl)cc2)COc2ccc(O)c(O)c21 | 1430 nM | 3220 nM
O=C(CCCCCCC(=O)Nc1ccc2c(c1)/C(=C/c1ccc[nH]1)C(=O)N2)NO | 187 nM | 2090 nM
C=CC(=O)Nc1cccc(C)c1Nc1ncc2cc(-c3c(Cl)c(OC)cc(OC)c3Cl)ccc2n1 | 1870 nM | 6280 nM
COC(=O)[C@@H](C)C[C@H](Cc1ccccc1)NC(=O)c1csc([C@@H](C[C@H](C(C)C)N(C)C(=O)C2(NC(=O)[C@H]3CCCCN3C)CC2)OC(C)=O)n1 | 2.51 nM | 
COc1ccc(/C=C/C(=O)c2cc3c(N)c(C(=O)Nc4ccccc4)sc3nc2C)cc1 | 179 nM | > 41700 nM

— PubChem BioAssay (NCI)
